Consider 1 substance from patent publication US20250281590A1, “IMMUNOGENIC COMPOSITIONS COMPRISING CONJUGATED ESCHERICHIA COLI SACCHARIDES AND USES THEREOF” (Pfizer Inc., priority 2024, published 2025).

Assay in all cases: IgG dLIA with pAb standards, NHP sera, CpG study (Example 5)
Format in all cases: in vivo, rhesus macaque

Test [1] relates to E. coli O-antigen serotype O1a. Conditions: 4 valent O-antigen SCP with CpG 1800 μg; dLIA standard (pAb/mAb) not specified; listed as CpG. How it is done: (§1) The 4-plex O-antigen IgG dLIA serology assay was completed as follows: The primate serology assay utilized the same O-antigen MagPlex®-C microspheres (Luminex) as the mouse serology assay described in Example 3, above. Microspheres were incubated with serially diluted NHP serum samples, controls, and human polyclonal serum standards overnight at 2-8° C. while shaking. In this case, bound serotype-specific IgG was detected with PE-conjugated goat anti-human IgG. Fcγ fragment-specific secondary antibody (Jackson Laboratories) and fluorescence was measured on the FlexMap 3D instrument ([…]). Human serum containing IgG to all four O-antigens was used as an internal standard for interpolating NHP serum IgG concentrations. […] Lower limit of quantification (LLOQ) was defined as 2 U/mL.
(§2) In this study, the adjuvanting effect of nucleotide adjuvant CpG 24555 on immunogenicity of E. coli O-antigen SCP glycoconjugates of serotypes O1a, O2, O6, and O25b was assessed in a NHP (Rhesus Macaques) model.
(§3) 20 male rhesus macaques were selected for this study. Three groups of Rhesus macaques were vaccinated with the 4 valent O-antigen SCP glycoconjugates including one group without CpG adjuvant, one group with CpG adjuvant and a lower dose of the 4 valent O-antigen SCP glycoconjugates, and one group with CpG adjuvant and a higher dose of 4 valent O-antigen SCP glycoconjugates. The no adjuvant control group, as well as the group with CpG adjuvant and the higher dose of glycoconjugates included 2 μg of serotypes O1a, O2, and O6, as well as 4 μg of serotype O25b. The group with CpG adjuvant and the lower dose of glycoconjugates included 0.5 μg of serotypes O1a, O2, and O6, as well as 1 μg of serotype O25b. Vaccination was administered at months 0, 2, and 6. Animals were bled prior to vaccination and at weeks 1, 2, 4, 6, 9, 10, 12, 25, and 26. 0.5 mL of vaccine formulation was injected intramuscularly (IM).
(§4) Geometric mean titers (GMTs) of IgG antibodies specific for each of the respective 0-antigen serotypes O1a, O2, O6, and O25b were quantified using a Luminex 4-plex dLIA assay. The 4-plex O-antigen IgG dLIA serology assay was completed as described in Example 4, above. Table 21 and 22, below, present data for IgG GMT titers for each of serotypes O1a, O2, O6, and O25b.

The test system of test [2] is E. coli O-antigen serotype O6. Conditions: 4 valent O-antigen SCP with CpG 1800 μg, dLIA standard (pAb/mAb) not specified. The method, then: as §1, §2, §3, §4
The test system of test [3] is E. coli O-antigen serotype O2. Conditions: 4 valent O-antigen SCP with CpG 1800 μg, dLIA standard (pAb/mAb) not specified. The method, then: as §1, §2, §3, §4
For test [4], the system named is E. coli O-antigen serotype O25b. Conditions: 4 valent O-antigen SCP with CpG 1800 μg; after each vaccination; dLIA standard (pAb/mAb) not specified; listed as CpG. How it is done:
as §1, §2, §3, §4

CpG 24555 [CpG adjuvant]: the “Serotype O1a IgG titers, fold increase vs. unadjuvanted titers” value in test [1] is given as “greater than twenty-fold increases”. For the same substance, the “Serotype O6 IgG titers, fold increase vs. unadjuvanted titers” value in test [2] is reported as “less than 10 fold”; in test [2] (listed as CpG), “up to ten-fold increases”. For the same substance, the results for the “Serotype O2 IgG titers, fold increase vs. unadjuvanted titers” value in test [3] and in test [3] (listed as CpG) were “less than 10 fold” and “up to ten-fold increases”, respectively. Moreover, in test [4], the “Serotype O25b IgG titers, fold increase vs. unadjuvanted titers” value is listed as “greater than twenty-fold increases”.
